Consider four compounds from US8129406B2, “Nonpeptide inhibitors of matrix metalloproteinases” (Southern Research Institute, priority 2004, dated 2012).

One series concerns the target T1, MMP-2 (Homo sapiens, UniProt P08253).
T1 construct: Human rMMP-2 and -9 were purified in active forms; made in house
T1 sequence (P08253 110-660): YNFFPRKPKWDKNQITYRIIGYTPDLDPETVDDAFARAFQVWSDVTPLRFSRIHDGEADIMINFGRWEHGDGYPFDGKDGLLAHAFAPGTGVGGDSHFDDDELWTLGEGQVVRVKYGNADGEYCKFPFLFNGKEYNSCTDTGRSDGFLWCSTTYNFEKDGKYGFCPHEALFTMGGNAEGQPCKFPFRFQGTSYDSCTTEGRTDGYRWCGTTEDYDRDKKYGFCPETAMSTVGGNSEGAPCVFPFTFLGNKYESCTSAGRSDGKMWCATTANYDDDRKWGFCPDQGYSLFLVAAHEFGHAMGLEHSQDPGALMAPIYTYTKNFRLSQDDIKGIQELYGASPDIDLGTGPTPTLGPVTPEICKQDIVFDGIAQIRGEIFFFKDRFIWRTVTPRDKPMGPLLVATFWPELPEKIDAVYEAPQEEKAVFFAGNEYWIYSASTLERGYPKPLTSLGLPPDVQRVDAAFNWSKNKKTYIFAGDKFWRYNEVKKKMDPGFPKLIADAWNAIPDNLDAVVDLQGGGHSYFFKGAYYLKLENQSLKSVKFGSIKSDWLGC
Briefly: Enzyme inhibition assay, fluorometric substrate degradation, MMP-2. The format is biochemical. Conditions: purified human rMMP-2, fluorogenic substrate; read-out: Inhibition Potencies, IC50, MMP-2. The protocol: (§1) For kinetic studies, a standard fluorimetric assay based on hydrolysis of fluorogenic synthetic substrate (1 μM of McaPLGLDpaAR) was used. […] Both concentration and time-dependent cleavage were monitored. Controls included trypsin (non-specific cleavage) and bacterial collagenase (total cleavage) and other zinc-protease (ACE, endopeptidase). […] The IC50 values were converted to Ki values using the equation, Ki=IC50/(1+S/Km). […] Inhibition kinetics of various MMPs were also determined using substrate-degradation ELISA kits from Chemicon (Temecula, Calif.). See C.
(§2) Substrate specificity for MMP-1, -2, and -9 was assessed by degradation of labeled-collagen I and IV. […] Inhibitory potency and selectivity was also analyzed using a gelatin or collagen zymography followed by densitometric analysis. Labeled collagen I or IV degradation assay (zymography) was used for M-1, -2 and -9 activities and their inhibition. Bacterial collagenase and EDTA (10 mM) was included as positive and negative controls. In situ zymography film technique was also used for measurement of MMP-2 and MMP-9 (gelatinolytic) activities and their inhibition by drug treatment in target cells and tissue samples.

The next series addresses T2, MMP-9 (Homo sapiens, UniProt P14780).
T2 construct: Human rMMP-2 and -9 were purified in active forms; made in house
Briefly: Enzyme inhibition assay, fluorometric substrate degradation, MMP-9. The format is biochemical. Conditions: purified human rMMP-9, fluorogenic substrate; read-out: Inhibition Potencies, IC50, MMP-9. The protocol: as §1, §2

In the next series the target is T3, MMP-3 (Homo sapiens, UniProt P08254).
T3 construct: purchased Chemicon
Briefly: Enzyme inhibition assay, fluorometric substrate degradation, MMP-3. The format is biochemical. Particulars: Minienzyme used; read-out: Inhibition Potencies, IC50, MMP-3. The procedure:
(§3) Human rMMP-2 and -9 were purified in active forms, and purified MMP-1, -3 and -13 were obtained from commercial sources (Chemicon; Temecula, Calif.) in zymogen form and were activated by 1 mM APMA or PCMB treatment (2 hrs at 37° C.). For kinetic studies, a standard fluorimetric assay based on hydrolysis of fluorogenic synthetic substrate (1 μM of McaPLGLDpaAR) was used. For each assay, target MMP (1 μM) and increasing concentrations of test compound were incubated at 25° C. for 30-60 min and the rate of substrate hydrolysis was measured by Perkin-Elmer fluorometer at an excitation 328 nm and an emission 393 nm settings. Both concentration and time-dependent cleavage were monitored. Controls included trypsin (non-specific cleavage) and bacterial collagenase (total cleavage) and other zinc-protease (ACE, endopeptidase). IC50 values (the concentration at which 50% enzyme activity is inhibited) were determined by plots of % activity versus negative log of agent concentration. The IC50 values were converted to Ki values using the equation, Ki=IC50/(1+S/Km). The Km values (μM) were calculated from the […] values of 3-5 separate experiments. Inhibition kinetics of various MMPs were also determined using substrate-degradation ELISA kits from Chemicon (Temecula, Calif.). See C. Knight, et al., FEBS Lett., 1992, 296, 263-266; L. Windsor, et al., Biochem. Biophys. Acta […], 1334, 261-272, which are incorporated by reference herein for their teachings of enzyme inhibition assays.
MMP inhibitor selectivity determinations: Both quantitative labeled-substrate and FITC-biopeptide (matrix-specific) assays were used to examine the selective inhibition of MMP activities. Substrate specificity for MMP-1, -2, and -9 was assessed by degradation of labeled-collagen I and IV. Typically, MMP-dependent biomatrix degradation was monitored in the presence and absence of candidate compounds (0.5-500 μm) after 60-90 min incubations. Inhibitory potency and selectivity was also analyzed using a gelatin or collagen zymography followed by densitometric analysis. […]

For another series, the target named is Endopeptidase. Briefly: Enzyme inhibition assay, endopeptidase (other zinc-protease control). It is filed as biochemical. Conditions: for IC50: read-out: Inhibition Potencies, IC50, Endopeptidase. The protocol:
as §3

Series [1] concerns nontumorigenic human fibroblasts cells (HF). Briefly: Functional evaluation in Amgel models, nontumorigenic fibroblasts. It is filed as cell-based.
A short description of series [2]: Cell proliferation and cell viability at the tested concentrations. It is filed as cell-based. Conditions: at the tested concentrations (data not shown).
The test system of series [3] is HT-1080R. Briefly: Amgel human tumor cell invasion bioassay, HT-1080R. It is filed as cell-based. Particulars: 72 hours incubation at 50-100 μM. The procedure:
(§4) Human tumor cell invasion bioassay: Amgel-coated filters (8 μm) were used as tissue biomatrix barriers placed between Lucite chambers. Labeled cells (50,000) were seeded onto reconstituted-Amgel filters (75 μg) and the lower chambers were filled with media containing 5% dialyzed serum. Test compounds (0.5-100 μM) were added and incubated for 72 hours. Contents from the lower chamber were collected to resolve cell-bound and free radioactivity. See G. Siegal, et al., Cancer Lett. 1993, 69, 123-132; L. Goodly, et al., Tumor Biology 1994, 15, 326-336; M. Ikeda, et al., Clin. Cancer. Res. 2000, 6, 3290-3296; R. Singh, et al., In Vitro Cell Develop. Biol., 2002, 38, 11.
(§5) Evaluation of the compounds 1c and 2c in Amgel human tumor invasion and angiogenesis models (72 hours incubation at 50-100 μM) was performed using two human HT-1080 cancer cell sublines (HT-1080-B and HT-1080-R). The results of these assays with compound 2c are shown in Table 2 and FIG. 1 (data for compound 1 c not shown).

The subject of series [4] is HT-1080B. Briefly: Amgel human tumor cell invasion bioassay, HT-1080B. It is filed as cell-based. Conditions: 72 hours incubation at 50-100 μM. The protocol: as §4, §5
Series [5] relates to HF. Briefly: Amgel human tumor cell invasion bioassay, HF. It is filed as cell-based. Conditions: 72 hours incubation at 50-100 μM.
Series [6] has as its system HT-1080R. Briefly: Amgel human tumor angiogenesis bioassay, HT-1080R. The format is cell-based. Particulars: 72 hours incubation at 50-100 μM. The protocol:
(§6) Human tumor angiogenesis bioassay: Angiogenesis was induced by coculture of human endothelial cells (HUVECs) with tumor cells or defined angiogenic factor (FGF). Tumor cells media (from 24-hour serum-free cultures) were used to induce a biological angiogenic response using human glioma cell lines producing different concentrations of VEGF or by using purified factors such as 20 μM FGF. Endothelial cells were seeded onto Amgel-coated filters and induced with a angiogenic media+/−candidate MMP inhibitors. Varying concentrations of test compounds (0.5-500 μM) and incubation times (1-7 days) were applied, and endothelial cell differentiation (sprouting and tubule-like capillary formation) were examined by light microscopy and a computerized digital system.
as §5

The test system of series [7] is HT-1080B. Briefly: Amgel human tumor angiogenesis bioassay, HT-1080B. The format is cell-based. Particulars: 72 hours incubation at 50-100 μM. The procedure:
as §6, §5

The subject of series [8] is HF. Briefly: Amgel human tumor angiogenesis bioassay, HF. Particulars: 72 hours incubation at 50-100 μM. It is filed as cell-based. The procedure:
as §6, §5

T3 sequence (P08254 100-477, species assumed): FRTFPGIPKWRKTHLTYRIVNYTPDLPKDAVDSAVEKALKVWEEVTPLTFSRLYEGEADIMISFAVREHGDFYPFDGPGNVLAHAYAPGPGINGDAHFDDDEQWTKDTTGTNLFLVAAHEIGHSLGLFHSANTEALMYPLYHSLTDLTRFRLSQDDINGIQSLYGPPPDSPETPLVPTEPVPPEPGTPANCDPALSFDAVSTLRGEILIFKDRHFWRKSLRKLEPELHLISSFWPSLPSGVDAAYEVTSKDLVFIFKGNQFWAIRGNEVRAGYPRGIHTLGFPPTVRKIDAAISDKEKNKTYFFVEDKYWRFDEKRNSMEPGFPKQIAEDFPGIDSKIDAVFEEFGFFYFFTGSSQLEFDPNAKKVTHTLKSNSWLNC
T2 sequence (P14780 107-707 limits assumed): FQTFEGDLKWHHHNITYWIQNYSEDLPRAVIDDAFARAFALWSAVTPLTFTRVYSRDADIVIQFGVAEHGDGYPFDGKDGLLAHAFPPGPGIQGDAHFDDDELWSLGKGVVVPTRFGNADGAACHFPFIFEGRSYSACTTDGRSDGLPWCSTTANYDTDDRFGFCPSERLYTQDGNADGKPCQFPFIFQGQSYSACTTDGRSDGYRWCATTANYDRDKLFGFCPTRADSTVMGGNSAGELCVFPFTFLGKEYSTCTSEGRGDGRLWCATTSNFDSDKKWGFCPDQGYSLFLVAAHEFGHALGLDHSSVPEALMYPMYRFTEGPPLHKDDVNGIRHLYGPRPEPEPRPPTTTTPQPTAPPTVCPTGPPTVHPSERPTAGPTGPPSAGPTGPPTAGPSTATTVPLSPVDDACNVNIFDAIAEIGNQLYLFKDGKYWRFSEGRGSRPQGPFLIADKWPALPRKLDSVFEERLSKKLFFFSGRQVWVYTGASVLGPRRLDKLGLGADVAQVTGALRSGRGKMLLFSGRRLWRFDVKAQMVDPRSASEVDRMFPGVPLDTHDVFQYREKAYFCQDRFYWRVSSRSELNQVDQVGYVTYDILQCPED

By IC50 is commonly meant the concentration needed to halve the response being measured. The melting point is the temperature, or range, at which the solid turns liquid. As for `O=C(NO)[C@@H]1CCCC[C@@H]1NS(=O)(=O)c1ccc(-c2ccccc2)cc1` (racemic) [compound 1c, (cis)-N-Hydroxy-2-[[(4-Biphenyl)sulfonyl]amino]cyclohexanecarboxamide], the melting point fell in the range of 74 to 76 °C. The half-inhibitory concentration (IC50) at MMP-2 amounted to 150 nM. Moreover, the 50% inhibitory concentration (IC50) on MMP-9 worked out at 175 nM. For the same compound, the IC50 at MMP-3 is greater than 3000 nM. On Endopeptidase, the IC50 is greater than 20000 nM. Moreover, in [1], the “effect on nontumorigenic human fibroblasts cells (HF)” value was “neither compound 1c nor compound 2c had any effect”. In addition, in [2], the “effect on cell proliferation” value is given as “no effect” and the “effect on cell viability” value is listed as “no effect”.

`O=C(NO)[C@@H]1CCCC[C@H]1NS(=O)(=O)c1ccc(-c2ccccc2)cc1` (racemic) [compound 2c, (trans)-N-Hydroxy-2-[[(4-Biphenyl)sulfonyl]amino]cyclohexanecarbox-amide] returned a melting point of 212 to 214 °C. Further, the IC50 at MMP-2 worked out at 125 nM. The IC50 on MMP-9 came to 145 nM. The concentration for half-maximal inhibition (IC50) at MMP-3 is greater than 3000 nM. The IC50 at Endopeptidase was greater than 20000 nM. The “% Inhibition, Tumor invasion” value in the series with HT-1080R [3] is listed as 60 ± 5%. Further, the “% Inhibition, Tumor invasion” value with HT-1080B [4] stood at 50 ± 8%. The “% Inhibition, Tumor invasion” value with HF [5] was “No effect”. The “% Inhibition, Tumor angiogenesis” value in the series with HT-1080R [6] worked out at 40 ± 6%. Besides, in the series with HT-1080B [7], the “% Inhibition, Tumor angiogenesis” value is 45 ± 4%. The “% Inhibition, Tumor angiogenesis” value in the series on HF [8] is recorded as “No effect”. For the same compound, the “effect on nontumorigenic human fibroblasts cells (HF)” value in [1] is “neither compound 1c nor compound 2c had any effect”. For the same compound, in series [2], the “effect on cell proliferation” value is recorded as “no effect” and the “effect on cell viability” value is reported as “no effect”.

For `O=C(NO)[C@@H]1CCCC[C@H]1NS(=O)(=O)c1ccc(Oc2ccccc2)cc1` (relative stereo) [compound 2d, (trans)-N-Hydroxy-2-[(4-Phenoxybenzenesulfonyl)amino]cyclohexane-carboxamide], the melting point lay within 182 to 184 °C.

Regarding `CNC(=O)[C@H](Cc1c[nH]c2ccccc12)NC(=O)[C@@H](CC(=O)NO)CC(C)C` [GM-6001, reference compound], the IC50 at MMP-3 came out at 80 nM. Besides, the “Inhibition Potencies, IC50, Endopeptidase” value with Endopeptidase is reported as “not detectable”.
